Patent EP2815749A1, “Solid form of 4-amino-2-(2,6-dioxopiperidine-3-yl)isoindoline-1,3-dione having specified X-ray diffraction pattern” (IP Gesellschaft für Management mbH, priority 2013, dated 2014)
Converted amounts (≈) assume the structure as drawn. Where two headings read alike, the source gives them in different places.

Experiments:
[1] = Solubility of pomalidomide in various solvents; assay type: physicochemical; details: ambient temperature
Procedure: Pomalidomide Polymorph Preparations: A weighed sample of pomalidomide (about 100 mg) was treated with 2 mL of a test solvent. The solvents used were either reagent or HPLC grade. The resulting mixture was agitated for at least 24 hours at 25°C. When all of the solids were dissolved by visual inspection, the estimated solubilities were calculated. The solubility was estimated from these experiments based on the total volume of solvent used to give a solution. The actual solubility may be greater than those calculated due to the use of a large amount of solvent or to a slow rate of dissolution. […] A known volume of filtrate was evaporated to dryness and the weight of the residue was measured. Equilibration and evaporation experiments were carried out by adding an excess of pomalidomide to 4 mL of a test solvent. The resulting mixture was agitated for at least 24 hours at 25°C and 50°C separately. Upon reaching equilibrium, the saturated solution was removed and allowed to evaporate slowly in an open vial under nitrogen at 25°C and 50°C respectively. The slurry resulting from the equilibration was filtered and dried in the air. Crystallizations using cooling methods were performed. The solid was dissolved in a solvent at an elevated temperature, approximately 80°C and allowed to cool to room temperature. […] Solids were isolated by decantation and allowed to dry in the air. Precipitation studies were carried out by solvent/anti-solvent combinations. The solid was dissolved in a solvent in which pomalidomide solubility was high, and then a selected solvent in which pomalidomide was highly insoluble (anti-solvent) was added to the solution. A precipitate formed immediately in some solvent/anti-solvent systems. […] The precipitate was then isolated by decantation and allowed to dry in the air. All of the samples generated as described in the polymorph preparation study were analyzed by XRPD. X PD was conducted on a Thermo ARL X'TRA X-ray powder diffractometer using Cu Kcc radiation at 1.54 A. The instrument was equipped with a fine focus X-ray tube. The voltage and amperage of X-ray generator were set at 45 kV and 40 mA, respectively. The divergence slices were set at 4 mm and 2 mm and the measuring slices were set at 0.5 mm and 0.2 mm. Diffracted radiation was detected by peitier-cooled Si(Li) solid state detector. A theta-two theta continuous scan at 2.40°/min (0.5 sec/0.02c step) from 1.5° 20 to 40° 2.0 was used. A sintered alumina standard was used to check the peak position. DSC analyses were performed on a TA instrument Q1000. Indium was used as calibration standards. Approximately 2-5 mg of sample was placed into a DSC pan and the weight was accurately recorded. The sample was heated under nitrogen at a rate of 10°C/min, up to a final temperature of 350°C. Melting points were reported as extrapolated onset temperature. TG analyses were performed on a TA instrument Q500. Calcium oxalate was used for performance check. Approximately 10-25 mg of sample was placed on a pan, accurately weighed and loaded into the TG furnace. The sample was heated under nitrogen at a rate of 10°C/min, up to a final temperature of 350°C. Morphology and particle size analysis of the samples were carried out on an Olympus microscope. The instrument was calibrated with USP standards. Hygroscopicity was determined on a Surface Measurement Systems DVS. Typically a sample size of 10-50 mg was loaded into the DVS instrument sample pan and the sample was analyzed on a DVS automated sorption analyzer at 25°C. The relative humidity was increased in 10% increments from 0% to 95% RH. The relative humidity was then decreased in a similar mariner to accomplish a full adsosption/desorption cycle. […]

[2] = Approximate solubility of pomalidomide at 50°C in 96 solvent compositions (LC); assay type: physicochemical; details: binary solvent composition (main solvent and co-solvent), 50 °C, organic solvent or mixture, thermodynamic from solid
Procedure: Pomalidomide Solid Form Preparations: Preparation of solid form of pomalidomide was conducted by equilibrating pomalidomide in 96 solvent compositions at 50°C and subjected to four conditions: slurry, evaporation, cooling, and precipitation. […] Solvents were then added, as binary gradients consisting of main solvent and co-solvent, to give a total of 150 µl, in each of the 96 vials (see Table 6 for the exact composition of each vial). […] For each of the evaporation, precipitation, and cooling experiments, approximately 8 mg of a solid sample of pomalidomide (e.g., Form A) was delivered to each position of the plate. Solvents were added to the master plate, as binary gradients consisting of main solvent and co-solvent, to give a total volume of 800 µT in each of the 96 vials (see Table 7 for the exact composition of each vial). The master plate, containing pomalidomide and solvents, was then equilibrated by stirring for 2 hours at 50°C. Upon completion of the equilibration cycle, the supernatant was aspirated into a four-tipped needle assembly and transferred to a sealed parallel filtration assembly. The mixtures were forced through the filtration assembly using positive pressure and the filtrates were collected in an array of glass vials. The filtered solutions were subsequently aspirated into the four-tipped assembly and aliquots were dispensed to an array of glass vials for subsequent LC analysis to determine approximate concentrations of pomalidomide in each solvent composition at the beginning of the experiments (Table 8). Both the four-tipped needle assembly and filtration assembly were maintained at the equilibration temperature of 50°C throughout the entire transfer process.
The results correspond to the solvent systems described in Table 7, equilibrated at 50°C for 2 hours. […] The approximate concentrations were determined by LC.

`Nc1cccc2c1C(=O)N(C1CCC(=O)NC1=O)C2=O` (centres unmarked) [Pomalidomide, 4-amino-2-(2,6-dioxopiperidine-3-yl)isoindoline-1,3-dione] gave a solubility ([1]; Methyl t-butyl ether) of 1030 µg/mL, a solubility ([1]; acetone, 25 °C, organic solvent or mixture, thermodynamic from solid, Acetone, read-out: Solubility) of 1990 µg/mL and a solubility ([1]; acetonitrile, 25 °C, organic solvent or mixture, thermodynamic from solid, Acetonitrile, read-out: Solubility) of 1270 µg/mL. The solubility ([1]; ethanol/water (1:1), 25 °C, aqueous with cosolvent or surfactant or cyclodextrin, thermodynamic from solid, Ethanol/Water (1:1), read-out: Solubility) was 540 µg/mL, the solubility ([1]; methyl ethyl ketone, 25 °C, organic solvent or mixture, thermodynamic from solid, Methyl ethyl ketone, read-out: Solubility) was 1260 µg/mL and the solubility ([1]; methyl t-butyl ether, 25 °C, organic solvent or mixture, thermodynamic from solid, Methyl t-butyl ether, read-out: Solubility) was under 1000 µg/mL. It also gave a solubility ([1]; methylene chloride, 25 °C, organic solvent or mixture, thermodynamic from solid, Methylene chloride, read-out: Solubility) of 1450 µg/mL, a solubility ([1]; tetrahydrofuran, 25 °C, organic solvent or mixture, thermodynamic from solid, Tetrahydrofuran, read-out: Solubility) of 5260 µg/mL and a solubility at 2 h ([2]; solvent system A4 of Table 7, read-out: Approximate Measured Solubility) of 1440 µg/mL (≈ 5.27 mM). The solubility at 2 h ([2]; solvent system A5 of Table 7, read-out: Approximate Measured Solubility) was 800 µg/mL (≈ 2.93 mM), the solubility at 2 h ([2]; solvent system A6 of Table 7, read-out: Approximate Measured Solubility) was 280 µg/mL (≈ 1.02 mM) and the solubility at 2 h ([2]; solvent system A7 of Table 7, read-out: Approximate Measured Solubility) was 6980 µg/mL (≈ 25.5 mM). The solubility at 2 h ([2]; solvent system A8 of Table 7, read-out: Approximate Measured Solubility) was 7940 µg/mL (≈ 29.1 mM), the solubility at 2 h ([2]; solvent system A9 of Table 7, read-out: Approximate Measured Solubility) was 4410 µg/mL (≈ 16.1 mM) and the solubility at 2 h ([2]; solvent system B1 of Table 7, read-out: Approximate Measured Solubility) was 230 µg/mL (≈ 0.842 mM). It also gave a solubility at 2 h ([2]; solvent system B2 of Table 7, read-out: Approximate Measured Solubility) of 790 µg/mL (≈ 2.89 mM), a solubility at 2 h ([2]; solvent system B3 of Table 7, read-out: Approximate Measured Solubility) of 1030 µg/mL (≈ 3.77 mM) and a solubility at 2 h ([2]; solvent system B4 of Table 7, read-out: Approximate Measured Solubility) of 220 µg/mL (≈ 0.805 mM). It also gave a solubility at 2 h ([2]; solvent system B5 of Table 7, read-out: Approximate Measured Solubility) of 360 µg/mL (≈ 1.32 mM), a solubility at 2 h ([2]; solvent system B6 of Table 7, read-out: Approximate Measured Solubility) of 150 µg/mL (≈ 0.549 mM) and a solubility at 2 h ([2]; solvent system B7 of Table 7, read-out: Approximate Measured Solubility) of 3160 µg/mL (≈ 11.6 mM). It also gave a solubility at 2 h ([2]; solvent system B8 of Table 7, read-out: Approximate Measured Solubility) of 1720 µg/mL (≈ 6.29 mM), a solubility at 2 h ([2]; solvent system B9 of Table 7, read-out: Approximate Measured Solubility) of 920 µg/mL (≈ 3.37 mM) and a solubility at 2 h ([2]; solvent system B10 of Table 7, read-out: Approximate Measured Solubility) of 480 µg/mL (≈ 1.76 mM). For the same compound, the solubility at 2 h ([2]; solvent system B11 of Table 7, read-out: Approximate Measured Solubility) was 180 µg/mL (≈ 0.659 mM), the solubility at 2 h ([2]; solvent system C1 of Table 7, read-out: Approximate Measured Solubility) was 620 µg/mL (≈ 2.27 mM) and the solubility at 2 h ([2]; solvent system C2 of Table 7, read-out: Approximate Measured Solubility) was 1410 µg/mL (≈ 5.16 mM). It also gave a solubility at 2 h ([2]; solvent system C3 of Table 7, read-out: Approximate Measured Solubility) of 1670 µg/mL (≈ 6.11 mM), a solubility at 2 h ([2]; solvent system C4 of Table 7, read-out: Approximate Measured Solubility) of 480 µg/mL (≈ 1.76 mM) and a solubility at 2 h ([2]; solvent system C5 of Table 7, read-out: Approximate Measured Solubility) of 470 µg/mL (≈ 1.72 mM). For the same compound, the solubility at 2 h ([2]; solvent system C6 of Table 7, read-out: Approximate Measured Solubility) was 260 µg/mL (≈ 0.952 mM), the solubility at 2 h ([2]; solvent system C7 of Table 7, read-out: Approximate Measured Solubility) was 3710 µg/mL (≈ 13.6 mM) and the solubility at 2 h ([2]; solvent system C8 of Table 7, read-out: Approximate Measured Solubility) was 2970 µg/mL (≈ 10.9 mM). It also gave a solubility at 2 h ([2]; solvent system C9 of Table 7, read-out: Approximate Measured Solubility) of 1840 µg/mL (≈ 6.73 mM), a solubility at 2 h ([2]; solvent system C10 of Table 7, read-out: Approximate Measured Solubility) of 1090 µg/mL (≈ 3.99 mM) and a solubility at 2 h ([2]; solvent system C11 of Table 7, read-out: Approximate Measured Solubility) of 490 µg/mL (≈ 1.79 mM). The solubility at 2 h ([2]; solvent system C12 of Table 7, read-out: Approximate Measured Solubility) was 340 µg/mL (≈ 1.24 mM), the solubility at 2 h ([2]; solvent system D1 of Table 7, read-out: Approximate Measured Solubility) was 1530 µg/mL (≈ 5.6 mM) and the solubility at 2 h ([2]; solvent system D2 of Table 7, read-out: Approximate Measured Solubility) was 670 µg/mL (≈ 2.45 mM). It also gave a solubility at 2 h ([2]; solvent system D3 of Table 7, read-out: Approximate Measured Solubility) of 3460 µg/mL (≈ 12.7 mM), a solubility at 2 h ([2]; solvent system D4 of Table 7, read-out: Approximate Measured Solubility) of 2500 µg/mL (≈ 9.15 mM) and a solubility at 2 h ([2]; solvent system D5 of Table 7, read-out: Approximate Measured Solubility) of 1940 µg/mL (≈ 7.1 mM). It also gave a solubility at 2 h ([2]; solvent system D6 of Table 7, read-out: Approximate Measured Solubility) of 490 µg/mL (≈ 1.79 mM), a solubility at 2 h ([2]; solvent system D7 of Table 7, read-out: Approximate Measured Solubility) of 3700 µg/mL (≈ 13.5 mM) and a solubility at 2 h ([2]; solvent system D8 of Table 7, read-out: Approximate Measured Solubility) of 2310 µg/mL (≈ 8.45 mM). The solubility at 2 h ([2]; solvent system D10 of Table 7, read-out: Approximate Measured Solubility) was 560 µg/mL (≈ 2.05 mM) and the solubility at 2 h ([2]; solvent system D11 of Table 7, read-out: Approximate Measured Solubility) was 1160 µg/mL (≈ 4.25 mM).
